Test system: RSV strain A2
Assay: in vitro cytoprotection assay against RSV in Hep2 cells
Format: cell-based
Details: human respiratory syncytial virus, HEp-2, 96 h; 1 uM compound; RSV-induced cytopathic effect in Hep2 cells, 4 days, Cell TiterGlo; read-out: RSV % inh. @ 1 uM
Method: Antiviral activity against RSV was determined using an in vitro cytoprotection assay in Hep2 cells. […] The method used is similar to methods previously described in Chapman J et al., “RSV604 a novel inhibitor of respiratory syncytial virus replication,” Antimicrob Agents Chemother, 51(9):3346-53 (2007).
Hep2 cells were obtained from ATCC (Manassas, Va.) and maintained in MEM media supplemented with 10% fetal bovine serum and penicillin/streptomycin. Cells were passaged twice a week and kept at subconfluent stage. Commercial stock of RSV strain A2 (Advanced Biotechnologies, Columbia, Md.) was titered before compound testing to determine the appropriate dilution of the virus stock that generates desirable cytopathic effect in Hep2 cells.
For antiviral tests, Hep2 cells were seeded into 96-well plates 24 hours before the assay at a density of 3,000 cells/well. On a separate 96well plate, tested compounds were serially diluted in cell culture media. Eight concentrations in 3-fold serial dilution increments were prepared for each tested compound and 100 uL/well of each dilution was transferred in duplicate onto plates with seeded Hep2 cells. Subsequently, appropriate dilution of virus stock previously determined by titration was prepared in cell culture media and 100 uL/well was added to test plates containing cells and serially diluted compounds. Each plate included three wells of infected untreated cells and three wells of uninfected cells that served as 0% and 100% virus inhibition control, respectively. Following the infection with RSV, testing plates were incubated for 4 days in a tissue culture incubator. After the incubation, RSV-induced cytopathic effect was determined using a Cell TiterGlo reagent (Promega, Madison, Wis.) followed by a luminescence read-out. The percentage inhibition was calculated for each tested concentration relative to the 0% and 100% inhibition controls and the EC50 value for each compound was determined by non-linear regression as a concentration inhibiting the RSV-induced cytopathic effect by 50%. Ribavirin (purchased from Sigma, St. Louis, Mo.) was used as a positive control for antiviral activity.

O=C(NC1CC1)c1cc2c(s1)-c1ccccc1N(C(=O)c1ccc(NC(=O)c3cccnc3C(F)(F)F)cc1F)CC2 [Example 26]
inhibition at 1 µM: 47%

Cc1ccsc1C(=O)Nc1ccc(C(=O)N2CCc3cc(C(=O)NC4CC4)sc3-c3ccccc32)cc1 [Example 22]
inhibition at 1 µM: 90%

Cc1ccccc1C(=O)N1CCC(C(=O)Nc2ccc(C(=O)N3CCc4cc(C(=O)NC5CC5)sc4-c4ccccc43)cc2)CC1 [Example 28]
inhibition at 1 µM: 15%

O=C(NC1CC1)c1cc2c(s1)-c1ccccc1N(C(=O)c1ccc(NC(=O)c3cccnc3N3CC(F)C3)cc1)CC2 [Example 45]
inhibition at 1 µM: 100%

O=C(NC1CC1)c1cc2c(s1)-c1ccccc1N(C(=O)c1ccc(NC(=O)c3cccnc3N3CC[C@H](F)C3)cc1)CC2 [Example 39]
inhibition at 1 µM: 94%

Cn1ccc2cccc(C(=O)Nc3ccc(C(=O)N4CCc5cc(C(=O)NC6CC6)sc5-c5ccccc54)cc3)c21 [Example 20]
inhibition at 1 µM: 99%

O=C(NC1CC1)c1cc2c(s1)-c1ccccc1N(C(=O)c1ccc(NC(=O)c3cccnc3N3CCC3)cc1)CC2 [Example 46]
inhibition at 1 µM: 98%

O=C(Nc1ccc(C(=O)N2CCc3cc(C(=O)NC4CC4)sc3-c3ccccc32)cc1)c1cc(N2CCC2)ccn1 [Example 18]
inhibition at 1 µM: 98%

O=C(Nc1ccc(C(=O)N2CCc3cc(C(=O)N4CCCC4)sc3-c3ccccc32)cc1)c1cccnc1N1CCCC1 [Example 49]
inhibition at 1 µM: 30%

O=C(NC1CC1)c1cc2c(s1)-c1ccccc1N(C(=O)c1ccc(NC(=O)c3cccc4nccnc34)cc1)CC2 [Example 25]
inhibition at 1 µM: 64%

COc1ccc(C(=O)Nc2ccc(C(=O)N3CCc4cc(C(=O)NC5CC5)sc4-c4ccccc43)cc2)c(C)c1 [Example 47]
inhibition at 1 µM: 100%

O=C(Nc1ccc(C(=O)N2CCc3cc(C(=O)NC4CC4)sc3-c3ccccc32)cc1)c1ccc(N2CCC2)nc1 [Example 31]
inhibition at 1 µM: 30%

O=C(NC1CC1)c1cc2c(s1)-c1ccccc1N(C(=O)c1ccc(NC(=O)c3ccccc3Cc3ccccc3)cc1)CC2 [Example 17]
inhibition at 1 µM: 100%

Cc1cc(C(=O)Nc2ccc(C(=O)N3CCc4cc(C(=O)NC5CC5)sc4-c4ccccc43)cc2)c(N2CC(F)(F)C2)nn1 [Example 67]
inhibition at 1 µM: 98%

Cc1cc(C(=O)Nc2ccc(C(=O)N3CCc4cc(C(=O)NC5CC5)sc4-c4ccccc43)cc2)c(N2CCCC2)nn1 [Example 65]
inhibition at 1 µM: 95%

O=C(NCc1nccs1)c1cc2c(s1)-c1ccccc1N(C(=O)c1ccc(NC(=O)c3cccnc3N3CCCC3)cc1)CC2 [Example 52]
inhibition at 1 µM: 100%

O=C(NC1CC1)c1cc2c(s1)-c1ccccc1N(C(=O)c1ccc(NC(=O)c3cccnc3N3CC(F)(F)C3)cc1)CC2 [Example 7]
inhibition at 1 µM: 100%

O=C(NCCF)c1cc2c(s1)-c1ccccc1N(C(=O)c1ccc(NC(=O)c3cccnc3N3CCCC3)cc1)CC2 [Example 58]
inhibition at 1 µM: 100%

Cn1nc(C(=O)Nc2ccc(C(=O)N3CCc4cc(C(=O)NC5CC5)sc4-c4ccccc43)cc2)c2ccccc21 [Example 27]
inhibition at 1 µM: 41%

Cn1ccnc1CNC(=O)c1cc2c(s1)-c1ccccc1N(C(=O)c1ccc(NC(=O)c3cccnc3N3CCCC3)cc1)CC2 [Example 62]
inhibition at 1 µM: 90%

C[C@H]1CCCN1c1ncccc1C(=O)Nc1ccc(C(=O)N2CCc3cc(C(=O)NC4CC4)sc3-c3ccccc32)cc1 [Example 40]
inhibition at 1 µM: 98%

O=C(NC1CC1)c1cc2c(s1)-c1ccccc1N(C(=O)c1ccc(NS(=O)(=O)c3ccccc3)cc1)CC2 [Example 34]
inhibition at 1 µM: 90%

CN(C)C(=O)c1cc2c(s1)-c1ccccc1N(C(=O)c1ccc(NC(=O)c3cccnc3N3CCCC3)cc1)CC2 [Example 55]
inhibition at 1 µM: 16%

C[C@H](NC(=O)c1cc2c(s1)-c1ccccc1N(C(=O)c1ccc(NC(=O)c3cccnc3N3CCCC3)cc1)CC2)C(N)=O [Example 51]
inhibition at 1 µM: 46%

NS(=O)(=O)CCNC(=O)c1cc2c(s1)-c1ccccc1N(C(=O)c1ccc(NC(=O)c3cccnc3N3CCCC3)cc1)CC2 [Example 53]
inhibition at 1 µM: 1%

Cc1cc(C(=O)Nc2ccc(C(=O)N3CCc4cc(C(=O)NC5CC5)sc4-c4ccccc43)cc2)n(C(C)(C)C)n1 [Example 24]
inhibition at 1 µM: 78%

O=C(NC1CC1)c1cc2c(s1)-c1ccccc1N(C(=O)c1ccc(NC(=O)c3cccnc3N3CC(F)(F)C3)c(F)c1)CC2 [Example 64]
inhibition at 1 µM: 99%

NC(=O)CCNC(=O)c1cc2c(s1)-c1ccccc1N(C(=O)c1ccc(NC(=O)c3cccnc3N3CCCC3)cc1)CC2 [Example 60]
inhibition at 1 µM: 35%

O=C(Nc1ccc(C(=O)N2CCc3cc(C(=O)NC4CC4)sc3-c3ccccc32)cc1)c1ccnc(N2CCC2)c1 [Example 21]
inhibition at 1 µM: 94%

CC(C)(CO)NC(=O)c1cc2c(s1)-c1ccccc1N(C(=O)c1ccc(NC(=O)c3cccnc3N3CCCC3)cc1)CC2 [Example 56]
inhibition at 1 µM: 93%

O=C(NC1CC1)c1cc2c(s1)-c1ccccc1N(C(=O)c1ccc(NC(=O)c3cccnc3Br)cc1)CC2 [Example 1]
inhibition at 1 µM: 76%

O=C(NC1CC1)c1cc2c(s1)-c1ccccc1N(C(=O)c1ccc(NC(=O)c3ccncc3N3CC(F)C3)cc1)CC2 [Example 63]
inhibition at 1 µM: 99%

O=C(NC1CC1)c1cc2c(s1)-c1ccccc1N(C(=O)c1ccc(NC(=O)c3cccnc3N3CCCC3)cc1)CC2 [Example 37]
inhibition at 1 µM: 100%

O=C(NC1CC1)c1cc2c(s1)-c1ccccc1N(C(=O)c1ccc(NC(=O)c3cccnc3N3CC[C@@H](O)C3)cc1)CC2 [Example 44]
inhibition at 1 µM: 77%

O=C(NC1CC1)c1cc2c(s1)-c1ccccc1N(C(=O)c1ccc(NC(=O)c3cccnc3N3CC4(COC4)C3)cc1)CC2 [Example 10]
inhibition at 1 µM: 100%

O=C(NC1CC1)c1cc2c(s1)-c1ccccc1N(C(=O)c1ccc(NC(=O)c3cccnc3N3CC[C@@H](F)C3)cc1)CC2 [Example 38]
inhibition at 1 µM: 99%

COC1CN(C(=O)c2cc3c(s2)-c2ccccc2N(C(=O)c2ccc(NC(=O)c4cccnc4N4CCCC4)cc2)CC3)C1 [Example 59]
inhibition at 1 µM: 43%

NC(=O)c1cc2c(s1)-c1ccccc1N(C(=O)c1ccc(NC(=O)c3cccnc3N3CCCC3)cc1)CC2 [Example 61]
inhibition at 1 µM: 84%

O=C(NCc1ccccn1)c1cc2c(s1)-c1ccccc1N(C(=O)c1ccc(NC(=O)c3cccnc3N3CCCC3)cc1)CC2 [Example 50]
inhibition at 1 µM: 100%

O=C(NC1CC1)c1cc2c(s1)-c1ccccc1N(C(=O)c1ccc(NC(=O)c3cnccc3N3CCC3)cc1)CC2 [Example 19]
inhibition at 1 µM: 100%

CC(C)c1ccccc1C(=O)Nc1ccc(C(=O)N2CCc3cc(C(=O)NC4CC4)sc3-c3ccccc32)cc1 [Example 13]
inhibition at 1 µM: 99%

COC[C@@H]1CCCN1c1ncccc1C(=O)Nc1ccc(C(=O)N2CCc3cc(C(=O)NC4CC4)sc3-c3ccccc32)cc1 [Example 43]
inhibition at 1 µM: 99%

O=C(NC1CC1)c1cc2c(s1)-c1ccccc1N(C(=O)c1ccc(NC(=O)c3ccccc3-c3cccs3)cc1)CC2 [Example 11]
inhibition at 1 µM: 99%

O=C(NC1CC1)c1cc2c(s1)-c1ccccc1N(C(=O)c1ccc(NC(=O)c3ccccc3-c3ccc(F)cc3)cc1)CC2 [Example 8]
inhibition at 1 µM: 100%

C[C@@H]1CCCN1c1ncccc1C(=O)Nc1ccc(C(=O)N2CCc3cc(C(=O)NC4CC4)sc3-c3ccccc32)cc1 [Example 6]
inhibition at 1 µM: 100%

O=C(NC1CC1)c1cc2c(s1)-c1ccccc1N(C(=O)c1ccc(NC(=O)c3ccccc3I)cc1)CC2 [Example 2]
inhibition at 1 µM: 78%

O=C(NC1CC1)c1cc2c(s1)-c1ccccc1N(C(=O)c1ccc(NC(=O)c3ncccc3Br)cc1)CC2 [Example 5]
inhibition at 1 µM: 79%

O=C(Nc1ccccn1)c1cc2c(s1)-c1ccccc1N(C(=O)c1ccc(NC(=O)c3cccnc3N3CCCC3)cc1)CC2 [Example 54]
inhibition at 1 µM: 99%

O=C(NC1CC1)c1cc2c(s1)-c1ccccc1N(C(=O)c1ccc(NC(=O)c3ccncc3Br)cc1)CC2 [Example 4]
inhibition at 1 µM: 78%

O=C(NC1CC1)c1cc2c(s1)-c1ccccc1N(C(=O)c1ccc(NC(=O)c3cccnc3N3CCC[C@H]3C(F)(F)F)cc1)CC2 [Example 42]
inhibition at 1 µM: 99%

Cn1nccc1C(=O)Nc1ccc(C(=O)N2CCc3cc(C(=O)NC4CC4)sc3-c3ccccc32)cc1 [Example 29]
inhibition at 1 µM: 22%

O=C(N[C@@H]1CCOC1)c1cc2c(s1)-c1ccccc1N(C(=O)c1ccc(NC(=O)c3cccnc3N3CCCC3)cc1)CC2 [Example 57]
inhibition at 1 µM: 95%

O=C(NC1CC1)c1cc2c(s1)-c1ccccc1N(C(=O)c1ccc(NC(=O)c3ccccc3N3CCCC3)cc1)CC2 [Example 3]
inhibition at 1 µM: 100%

O=C(NC1CC1)c1cc2c(s1)-c1ccccc1N(C(=O)c1ccc(NC(=O)c3cnccc3C(F)(F)F)cc1)CC2 [Example 14]
inhibition at 1 µM: 100%

O=C(NC1CC1)c1cc2c(s1)-c1ccccc1N(C(=O)c1ccc(NC(=O)c3ccncc3N3CCC3)cc1)CC2 [Example 12]
inhibition at 1 µM: 97%
